Assay results published in patent publication US20260008760A1, “DIPEPTIDYL PEPTIDASE 1 INHIBITORS AND USES THEREOF” (Insmed Incorporated, priority 2024, published 2026).

Columns and labels:
[1] = target: human DPP1 enzyme (Homo sapiens, UniProt P53634); test: Human DPP1 Enzyme Single-Point Percent Inhibition Testing (HL-60 lysate); type: biochemical; set-up: A crude lysate of HL-60 cells (ATCC; Manassas, VA) was used as a source of human DPP1 enzyme; host or cells: HL-60 cells (crude lysate); settings: final compound concentration of 10 nM, 400 μM H-Gly-Arg-AMC, n = 1
Description: Example 98. Human DPP1 Enzyme Single-Point Percent Inhibition Testing
A crude lysate of HL-60 cells (ATCC; Manassas, VA) was used as a source of human DPP1 enzyme in the assay. Lysate was prepared in 1% Triton X-100 in PBS at a concentration of 20,000 live cells per μL of lysis buffer and was centrifuged at 16,000 rcf for 10 minutes at 4° C., after which supernatant was collected and flash-frozen in liquid nitrogen. Test articles were applied to human DPP1 enzyme in Assay Buffer (25 mM MES pH 6.0, 50 mM NaCl, 5 mM DTT) in a total reaction volume of 125 μL. 25 μL of compound diluted to 50 nM in Assay Buffer plus 5% DMSO was first added to 50 μL of HL-60 lysate diluted to contain a DPP1 enzyme concentration of roughly 1 ng/μL and allowed to pre-incubate for 10 minutes at 37° C. after which 50 μL of 1000 μM H-Gly-Arg-AMC substrate (Bachem; St. Torrance, CA) was added, giving final compound concentration of 10 nM, a final substrate concentration of 400 μM and a final DMSO concentration of 1%. Substrate cleavage was measured for 90 minutes at 37° C., with fluorescence at Excitation/Emission 350/450 nm measured every 5 minutes. DPP1 concentration was interpolated based on its activity relative to a standard curve of activated human recombinant DPP1 enzyme. Percent inhibition at 10 nM was calculated for each test article based on remaining DPP1 activity compared to enzyme activity in wells that received only vehicle control.

[2] = target: DPP1 in HL-60 cells (Homo sapiens, UniProt P53634); test: DPP1 Cell Single-Point Percent Inhibition Testing; type: cell-based; set-up: host or cells: HL-60 cells; settings: final compound concentration 5 nM, n = 1
Description: Example 100. DPP1 Cell Single-Point Percent Inhibition Testing
HL-60 cells (ATCC; Manassas, VA) were maintained in RPMI-1640 supplemented with 20% heat-inactivated FBS and 1× Antibiotic Antimycotic (Cytiva; Marlborough, MA). Media was changed every three to four days and cells were not allowed to exceed 1×10^6 cells per mL. Prior to assay, cells were collected by centrifugation at 500 rcf for 3 minutes, resuspended in RPMI (with no additional supplements) and counted. Cells were diluted in RPMI to a concentration of 5×10^5 live cells per mL and transferred to black 96-well plates for assay, 60 μL per well. Test articles were diluted to 25 nM in RPMI plus 0.5% DMSO, and 20 μL was added to each assay well. Compound was allowed to pre-incubate with cells with gentle shaking at 100 rpm for 60 minutes at 37° C. in a cell culture incubator maintained at 5% CO2, after which 20 μL of 500 μM H-Gly-Phe-AFC cell-permeable substrate (MP Biomedicals; Solon, OH) in RPMI was added to each well, giving final compound concentration of 5 nM, a final substrate concentration of 100 μM and a final DMSO concentration of 0.1%. Plates were returned to the incubator with shaking at 100 rpm for 30 minutes, after which fluorescence was measured at Excitation/Emission 400/505 nm. Percent Inhibition was calculated from RFU values by first subtracting background values (wells in which RPMI was substituted for cells) from each well, and then subtracting background-subtracted RFU derived from wells that received a final concentration of 10 μM brensocatib. This value represents the non-specific substrate cleavage from the HL-60 cells, and the remaining RFU should theoretically be solely the contribution of DPP1 enzyme activity. The final percent inhibition value was calculated for each test article based on remaining RFU compared to RFU from wells that received only vehicle control.

Chain of human DPP1 enzyme (P53634 25-463): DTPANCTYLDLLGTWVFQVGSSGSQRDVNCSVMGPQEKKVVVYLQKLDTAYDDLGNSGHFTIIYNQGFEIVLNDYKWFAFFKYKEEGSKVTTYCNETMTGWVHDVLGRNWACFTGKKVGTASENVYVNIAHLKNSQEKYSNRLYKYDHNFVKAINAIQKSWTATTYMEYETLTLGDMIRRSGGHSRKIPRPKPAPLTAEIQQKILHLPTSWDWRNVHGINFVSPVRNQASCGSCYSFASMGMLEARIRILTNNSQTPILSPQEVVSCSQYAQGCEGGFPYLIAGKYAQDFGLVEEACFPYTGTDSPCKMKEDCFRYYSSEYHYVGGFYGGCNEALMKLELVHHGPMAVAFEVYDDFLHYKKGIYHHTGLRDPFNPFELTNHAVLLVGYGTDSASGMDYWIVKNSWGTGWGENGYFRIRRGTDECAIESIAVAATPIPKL
Chain of DPP1 in HL-60 cells (P53634 25-463): as above

SMILES	inhibition at 0.01 µM [1] [%]	inhibition at 0.005 µM [2] [%]
N#C[C@H](Cc1ccc(-c2ccc3c(n2)CCCN3)cc1)NC(=O)[C@@H]1CNCCCCO1 [Compound A111]	≤ 40	≤ 76.5
CO[C@@H]1CCNC[C@@H](C(=O)N[C@H](C#N)Cc2ccc(-c3cc4c(C)nc(C)cn4c3)cc2F)OC1 [Compound A82]	≥ 66.7	76.5 to 93.9
COC1CNC[C@@H](C(=O)N[C@H](C#N)Cc2ccc(-c3cnc4c(n3)CCCC4)cc2)OC1 (stereo partly drawn) [Compound A90]	≥ 66.7	≤ 76.5
CO[C@H]1CCO[C@H](C(=O)N[C@H](C#N)Cc2ccc(-c3ccc4c(c3)C3(CC4)CCN(C)CC3)cc2)CNC1 [Compound F18]	≥ 66.7	≤ 76.5
CN1CCCC2(C1)C(=O)N(C)c1ccc(-c3ccc(C[C@@H](C#N)NC(=O)[C@@H]4CNCCCCO4)c(F)c3)cc12 (stereo partly drawn) [Compound 41]	40 to 66.7	≤ 76.5
Cc1nc(C)c2cc(-c3ccc(C[C@@H](C#N)NC(=O)[C@@H]4CN[C@@H](C)[C@H](O)CO4)cc3)cn2c1C [Compound A132]	≥ 66.7	76.5 to 93.9
C[C@@H]1NC[C@@H](C(=O)N[C@H](C#N)Cc2ccc(-c3ccc4c(n3)CCCN4)cc2F)OC[C@H]1O [Compound A101]	≥ 66.7	76.5 to 93.9
COC1CNC[C@@H](C(=O)N[C@H](C#N)Cc2ccc(-c3cc4c(C)nc(C)c(C)n4c3)cc2)OC1 (stereo partly drawn) [Compound A126]	≥ 66.7	≥ 93.9
COC1CNC[C@@H](C(=O)N[C@H](C#N)Cc2ccc(-c3cc4c(C)ncc(C)n4c3)cc2)OC1 (stereo partly drawn) [Compound A125]	≥ 66.7	≥ 93.9
Cc1cn2cc(-c3ccc(C[C@@H](C#N)NC(=O)[C@@H]4CNCCCO4)c(F)c3)cc2c(C)n1 [Compound A118]	≤ 40	≤ 76.5
CO[C@H]1CCO[C@H](C(=O)N[C@H](C#N)Cc2ccc(-c3ccc4c(n3)CCCN4)cc2F)CNC1 [Compound A95]	40 to 66.7	≤ 76.5
N#C[C@H](Cc1ccc(-c2cnc3c(n2)CCCC3)cc1F)NC(=O)[C@@H]1CNCCCCO1 [Compound A115]	≤ 40	≤ 76.5
CO[C@H]1CCO[C@H](C(=O)N[C@H](C#N)Cc2ccc(-c3ccc4c(n3)CCCN4)cc2)CNC1 [Compound A93]	≤ 40	≤ 76.5
CO[C@H]1CCO[C@H](C(=O)N[C@H](C#N)Cc2ccc(-c3cnc4c(n3)CCCC4)cc2)CNC1 [Compound A96]	40 to 66.7	≤ 76.5
CN1CCCC2(C1)C(=O)N(C)c1ccc(-c3ccc(C[C@@H](C#N)NC(=O)[C@@H]4CNCCCCO4)cc3)cc12 (stereo partly drawn) [Compound 36]	≤ 40	≤ 76.5
Cc1cn2cc(-c3ccc(C[C@@H](C#N)NC(=O)[C@@H]4CN[C@@H](C)[C@H](O)CO4)cc3)cc2c(C)n1 [Compound A98]	≥ 66.7	≤ 76.5
CN1CC2(C1)OC(=O)c1ccc(-c3ccc(C[C@@H](C#N)NC(=O)[C@@H]4CNCCCCO4)c(F)c3)cc12 [Compound 42]	40 to 66.7	≤ 76.5
CN1CCN(Cc2ccc(-c3ccc(C[C@@H](C#N)NC(=O)[C@@H]4CNCCCCO4)cc3)cc2)CC1 [Compound 40]	≤ 40	≤ 76.5
N#C[C@H](Cc1ccc(-c2ccc3c(c2)C2(CCN(C4COC4)CC2)OC3)cc1)NC(=O)[C@@H]1CNCCCCO1 [Compound 39]	≤ 40	≤ 76.5

Next, values leading:

inhibition at 0.01 µM [1] [%]	inhibition at 0.005 µM [2] [%]	SMILES
≥ 66.7	≤ 76.5	C[C@@H]1NC[C@@H](C(=O)NC(C#N)Cc2cc3c(cc2F)-c2cc4c(cc2CO3)oc(=O)n4C)OC[C@H]1O (stereo partly drawn) [Compound C19]
≥ 66.7	≤ 76.5	C[C@@H]1NC[C@@H](C(=O)NC(C#N)Cc2cc3c(cc2F)-c2cc4c(cc2CO3)oc(=O)n4C)OC[C@@H]1O (stereo partly drawn) [Compound C22]
40 to 66.7	≤ 76.5	CO[C@H]1CCO[C@H](C(=O)N[C@H](C#N)Cc2ccc(-c3ccc4cnn(C5CCN(C)CC5)c4c3)cc2)CNC1 [Compound H15]
40 to 66.7	≤ 76.5	COC1CNC[C@@H](C(=O)N[C@H](C#N)Cc2ccc(-c3ccn4ccnc4c3)cc2)OC1 (stereo partly drawn) [Compound H40]
≥ 66.7	≤ 76.5	COC1CNC[C@@H](C(=O)NC(C#N)Cc2cc3c(cc2F)-c2cc4c(cc2CO3)oc(=O)n4C)OC1 (stereo partly drawn) [Compound C14]
≥ 66.7	≤ 76.5	CO[C@@H]1CCNC[C@@H](C(=O)N[C@H](C#N)Cc2ccc(-c3ccc4nnn(C)c4c3)cc2F)OC1 [Compound H8]
40 to 66.7	≤ 76.5	C[C@@H]1NC[C@@H](C(=O)NC(C#N)Cc2cc3c(cc2F)-c2ccc4oc(=O)n(C)c4c2CO3)OC[C@@H]1O (stereo partly drawn) [Compound C23]
≥ 66.7	≤ 76.5	CO[C@@H]1CCNC[C@@H](C(=O)N[C@H](C#N)Cc2ccc(-c3ccc(S(=O)(=O)N4CCC4)cc3)cc2)OC1 [Compound F16]
≥ 66.7	≤ 76.5	CO[C@@H]1CCNC[C@@H](C(=O)N[C@H](C#N)Cc2ccc(-c3ccc(CN4CCN(C)CC4)cc3)cc2)OC1 [Compound F10]
40 to 66.7	≤ 76.5	CO[C@H]1CCO[C@H](C(=O)N[C@H](C#N)Cc2ccc(-c3ccc4c(c3)C3(CCCN(C)C3)C(=O)N4C)cc2)CNC1 (stereo partly drawn) [Compound F19]
≥ 66.7	≤ 76.5	COC1CNC[C@@H](C(=O)N[C@H](C#N)Cc2ccc(-c3ccc4cnn(C5CCN(C)CC5)c4c3)cc2F)OC1 (stereo partly drawn) [Compound H10]
≥ 66.7	76.5 to 93.9	CO[C@@H]1CCNC[C@@H](C(=O)NC(C#N)Cc2cc3c(cc2F)-c2cc(C#N)ccc2CO3)OC1 (stereo partly drawn) [Compound B21]
≥ 66.7	≤ 76.5	CO[C@H]1CCO[C@H](C(=O)N[C@H](C#N)Cc2ccc(-c3ccc4c(c3)C3(CCCN(C)C3)C(=O)N4C)cc2F)CNC1 (stereo partly drawn) [Compound F25]
≥ 66.7	≤ 76.5	CO[C@@H]1CCNC[C@@H](C(=O)N[C@H](C#N)Cc2ccc(-c3ccc4cnn(C5CCN(C)CC5)c4c3)cc2F)OC1 [Compound H4]
40 to 66.7	≤ 76.5	CCN1C(=O)Cc2ccc(-c3ccc(C[C@@H](C#N)NC(=O)[C@@H]4CNC[C@@H](OC)CCO4)cc3)cc21 [Compound G5]
40 to 66.7	≤ 76.5	CO[C@H]1CCO[C@H](C(=O)N[C@H](C#N)Cc2ccc(-c3ccc(S(=O)(=O)N4CCC4)cc3)cc2F)CNC1 [Compound F30]
≥ 66.7	≤ 76.5	CCN1C(=O)Cc2ccc(-c3ccc(C[C@@H](C#N)NC(=O)[C@@H]4CNCC[C@@H](OC)CO4)cc3)cc21 [Compound G1]
≥ 66.7	≤ 76.5	CO[C@H]1CCO[C@H](C(=O)N[C@H](C#N)Cc2ccc(-c3ccc4c(c3)C3(CN(C)C3)OC4=O)cc2F)CNC1 [Compound F26]
≥ 66.7	≤ 76.5	CO[C@H]1CCO[C@H](C(=O)NC(C#N)Cc2cc3c(cc2F)-c2cc4c(cc2CO3)oc(=O)n4C)CNC1 (stereo partly drawn) [Compound C16]
≤ 40	≤ 76.5	N#C[C@H](Cc1cc2c(cc1F)-c1ccc(F)cc1CO2)NC(=O)[C@@H]1CNCCCCO1 [Compound B30]
